We go through 22 compounds from patent publication US20100267774A1, “P38 MAP KINASE INHIBITORS” (CHROMA THERAPEUTICS LTD., priority 2007, published 2010).

pIC50: −log10 of the molar value.

For this test, the target named is T1, p38 MAP Kinase a (Homo sapiens, UniProt Q16539).
T1 construct: purchased Upstate (Dundee UK)
T1 sequence (Q16539 whole entry): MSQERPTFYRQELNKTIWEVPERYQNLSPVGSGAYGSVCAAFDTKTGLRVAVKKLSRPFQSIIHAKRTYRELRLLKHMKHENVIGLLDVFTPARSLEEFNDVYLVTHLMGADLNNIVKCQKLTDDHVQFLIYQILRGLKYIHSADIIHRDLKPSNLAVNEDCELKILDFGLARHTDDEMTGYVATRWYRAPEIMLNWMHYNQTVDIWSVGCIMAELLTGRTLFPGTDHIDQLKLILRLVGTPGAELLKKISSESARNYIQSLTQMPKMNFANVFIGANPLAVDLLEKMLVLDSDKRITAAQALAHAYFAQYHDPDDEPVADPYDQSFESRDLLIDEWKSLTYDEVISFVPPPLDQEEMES
In words: p38 MAP Kinase activity, radiometric filter-binding assay (Upstate). Type of test: biochemical. As to conditions: IC50 range; read-out: Inhibitor activity versus p38 MAPKa. As for the experimental part: The ability of compounds to inhibit p38 MAP a Kinase activity was measured in an assay performed by Upstate (Dundee UK). In a final reaction volume of 25 μL, p38 MAP Kinase a (5-10 mU) is incubated with 25 mM Tris pH 7.5, 0.002 mMEGTA, 0.33 mg/mL myelin basic protein, 10 mM MgAcetate and [g-33P-ATP] (specific activity approx. 500 cpm/pmol, concentration as required). The reaction is initiated by the addition of the MgATP mix. After incubation for 40 minutes at room temperature, the reaction is stopped by the addition of 5 μL of a 3% phosphoric acid solution. 10 μL of the reaction is then spotted onto a P30 filtermat and washed three times for 5 minutes in 75 mM phosphoric acid and once in methanol prior to drying and scintillation counting.
Duplicate data points are generated from a 1/3 log dilution series of a stock solution in DMSO. Nine dilutions steps are made from a top concentration of 10 μM, and a ‘no compound’ blank is included. The standard radiometric filter-binding assay is performed at an ATP concentration at, or close to, the Km. Data from scintillation counts are collected and subjected to free-fit analysis by Prism software. From the curve generated, the concentration giving 50% inhibition is determined and reported.
Turning to `CC(C)(C)OC(=O)[C@@H](NCCc1ccc(-n2c(N)c(C(=O)c3ccc(F)cc3F)ccc2=O)cc1)c1ccccc1` [Example 2, tert-butyl (2S)-{[2-(4-{6-amino-5-[(2,4-difluorophenyl)carbonyl]-2-oxopyridin-1(2H)-yl}phenyl)ethyl]amino}(phenyl)ethanoate], the pIC50 was 6.00 to 7.00.

`Nc1c(C(=O)c2ccc(F)cc2F)ccc(=O)n1-c1ccc(CCN[C@H](C(=O)OC2CCCC2)C2CCCCC2)cc1` [Example 3, Cyclopentyl (2S)-{[2-(4-{6-amino-5-[(2,4-difluorophenyl)carbonyl]-2-oxopyridin-1(2H)-yl}phenyl)ethyl]amino}(cyclohexyl)ethanoate]: the pIC50 was 6.00 to 7.00.

Consider `CC(C)(C)OC(=O)[C@@H](NCCc1ccc(-n2c(N)c(C(=O)c3ccc(F)cc3F)ccc2=O)cc1)C1CCCCC1` [Example 4, tert-butyl (2S)-{[2-(4-{6-amino-5-[(2,4-difluorophenyl)carbonyl]-2-oxopyridin-1(2H)-yl}phenyl)ethyl]amino}(cyclohexyl)ethanoate], for which the pIC50 was < 6.00.

On to `CC(C)C[C@@H](NCCc1ccc(-n2c(N)c(C(=O)c3ccc(F)cc3F)ccc2=O)cc1)C(=O)OC(C)(C)C` [Example 10, tert-butyl N-[2-(4-{6-amino-5-[(2,4-difluorophenyl)carbonyl]-2-oxopyridin-1(2H)-yl}phenyl)ethyl]-D-leucinate], for which the pIC50 was 6.00 to 7.00.

For `CC(C)C[C@H](NCCc1ccc(-n2c(N)c(C(=O)c3ccc(F)cc3F)ccc2=O)cc1)C(=O)O[C@H]1C[C@@H](C)CC[C@@H]1C(C)C` [Example 14, (1S,2R,5S)-2-Isopropyl-5-methylcyclohexyl N-(2-{4-[6-amino-5-(2,4-difluorobenzoyl)-2-oxopyridin-1(2H)-yl]phenyl}ethyl)-L-leucinate], the pIC50 was < 6.00.

`C[C@@H](OC(C)(C)C)[C@H](NCCc1ccc(-n2c(N)c(C(=O)c3ccc(F)cc3F)ccc2=O)cc1)C(=O)OC(C)(C)C` [Example 16, tert-butyl N-[2-(4-{6-amino-5-[(2,4-difluorophenyl)carbonyl]-2-oxopyridin-1(2H)-yl}phenyl)ethyl]-O-tert-butyl-L-threoninate]: the pIC50 was 6.00 to 7.00.

Consider `CC[C@H](C)[C@H](NCCc1ccc(-n2c(N)c(C(=O)c3ccc(F)cc3F)ccc2=O)cc1)C(=O)OC(C)(C)C` [Example 19, tert-butyl N-[2-(4-{6-amino-5-[(2,4-difluorophenyl)carbonyl]-2-oxopyridin-1(2H)-yl}phenyl)ethyl]-L-isoleucinate], for which the pIC50 is 6.00 to 7.00.

As for `C[C@H](NCCc1ccc(-n2c(N)c(C(=O)c3ccc(F)cc3F)ccc2=O)cc1)C(=O)OC(C)(C)C` [Example 21, tert-butyl N-[2-(4-{6-amino-5-[(2,4-difluorophenyl)carbonyl]-2-oxopyridin-1(2H)-yl}phenyl)ethyl]-L-alaninate], the pIC50 is > 7.00.

In the case of `CC(C)(C)OC(=O)[C@H](Cc1ccccc1)NCCc1ccc(-n2c(N)c(C(=O)c3ccc(F)cc3F)ccc2=O)cc1` [Example 23, tert-butyl N-[2-(4-{6-amino-5-[(2,4-difluorophenyl)carbonyl]-2-oxopyridin-1(2H)-yl}phenyl)ethyl]-L-phenylalaninate], the pIC50 was 6.00 to 7.00.

Consider `CC(C)(C)OC[C@H](NCCc1cc(F)c(-n2c(N)c(C(=O)c3ccc(F)cc3)ccc2=O)c(F)c1)C(=O)OC(C)(C)C` [Example 32, tert-butyl N-(2-{4-[6-amino-5-(4-fluorobenzoyl)-2-oxopyridin-1(2H)-yl]-3,5-difluorophenyl}ethyl)-O-tert-butyl-L-serinate], for which the pIC50 is 6.00 to 7.00.

For `CC(C)C[C@H](NCCc1ccc(-n2c(N)c(C(=O)c3ccc(F)cc3F)ccc2=O)s1)C(=O)OC(C)(C)C` [Example 50, tbutyl N-(2-{5-[6-amino-5-(2,4-difluorobenzoyl)-2-oxopyridin-1(2H)-yl]-2-thienyl}ethyl)-L-leucinate], the pIC50 was 6.00 to 7.00.

For the compound `Nc1c(C(=O)c2ccc(F)cc2F)ccc(=O)n1-c1ccc(CCN[C@H](C(=O)O)c2ccccc2)cc1` [Example 51, (2S)-[(2-{4-[6-amino-5-(2,4-difluorobenzoyl)-2-oxopyridin-1(2H)yl]-phenyl}ethyl)amino](phenyl)acetic acid], the pIC50 was 6.00 to 7.00.

Take `Nc1c(C(=O)c2ccc(F)cc2F)ccc(=O)n1-c1ccc(CCN[C@H](C(=O)O)C2CCCCC2)cc1` [Example 52, (2S)-{[2-(4-{6-amino-5-[(2,4-difluorophenyl)carbonyl]-2-oxopyridin-1(2H)-yl}phenyl)ethyl]amino}(cyclohexyl)ethanoic acid]: the pIC50 was 6.00 to 7.00.

Take `CC(C)[C@H](NCCc1ccc(-n2c(N)c(C(=O)c3ccc(F)cc3F)ccc2=O)cc1)C(=O)O` [Example 53, N-[2-(4-{6-amino-5-[(2,4-difluorophenyl)carbonyl]-2-oxopyridin-1(2H)-yl}phenyl)ethyl]-L-valine]: the pIC50 is > 7.00.

With `CC(C)(C)[C@H](NCCc1ccc(-n2c(N)c(C(=O)c3ccc(F)cc3F)ccc2=O)cc1)C(=O)O` [Example 54, N-[2-(4-{6-amino-5-[(2,4-difluorophenyl)carbonyl]-2-oxopyridin-1(2H)-yl}phenyl)ethyl]-3-methyl-L-valine], the pIC50 was 6.00 to 7.00.

`CC(C)C[C@@H](NCCc1ccc(-n2c(N)c(C(=O)c3ccc(F)cc3F)ccc2=O)cc1)C(=O)O` [Example 55, N-[2-(4-{6-amino-5-[(2,4-difluorophenyl)carbonyl]-2-oxopyridin-1(2H)-yl}phenyl)ethyl]-D-leucine]: the pIC50 was 6.00 to 7.00.

Take `CC(C)(C)OC[C@H](NCCc1ccc(-n2c(N)c(C(=O)c3ccc(F)cc3F)ccc2=O)cc1)C(=O)O` [Example 56, N-[2-(4-{6-amino-5-[(2,4-difluorophenyl)carbonyl]-2-oxopyridin-1(2H)-yl}phenyl)ethyl]-O-tert-butyl-L-serine]: the pIC50 is > 7.00.

For `Nc1c(C(=O)c2ccc(F)cc2F)ccc(=O)n1-c1ccc(CCN[C@@H](CO)C(=O)O)cc1` [Example 57, N-[2-(4-{6-amino-5-[(2,4-difluorophenyl)carbonyl]-2-oxopyridin-1(2H)-yl}phenyl)ethyl]-L-serine], the pIC50 is > 7.00.

For `C[C@@H](O)[C@H](NCCc1ccc(-n2c(N)c(C(=O)c3ccc(F)cc3F)ccc2=O)cc1)C(=O)O` [Example 58, N-[2-(4-{6-amino-5-[(2,4-difluorophenyl)carbonyl]-2-oxopyridin-1(2H)-yl}phenyl)ethyl]-L-threonine], the pIC50 was > 7.00.

With `C[C@H](NCCc1ccc(-n2c(N)c(C(=O)c3ccc(F)cc3F)ccc2=O)cc1)C(=O)O` [Example 60, N-[2-(4-{6-amino-5-[(2,4-difluorophenyl)carbonyl]-2-oxopyridin-1(2H)-yl}phenyl)ethyl]-L-alanine], the pIC50 was > 7.00.

In the case of `Nc1c(C(=O)c2ccc(F)cc2F)ccc(=O)n1-c1ccc(CCN[C@@H](Cc2ccccc2)C(=O)O)cc1` [Example 61, N-[2-(4-{6-amino-5-[(2,4-difluorophenyl)carbonyl]-2-oxopyridin-1(2H)-yl}phenyl)ethyl]-L-phenylalanine], the pIC50 was > 7.00.

As for `Nc1c(C(=O)c2ccc(F)cc2)ccc(=O)n1-c1c(F)cc(CCN[C@H](C(=O)O)c2ccccc2)cc1F` [Example 62, (2S)-[(2-{4-[6-amino-5-(4-fluorobenzoyl)-2-oxopyridin-1(2H)-yl]-3,5-difluorophenyl}ethyl)amino](phenyl)acetic acid], the pIC50 was > 7.00.
